# Experimental data from patent US9693992B2 (MannKind Corporation, priority 2010, dated 2017).
# Biological target: IRE-1α (Homo sapiens (Human), UniProt O75460)
# Assay: Cellular EC50: endogenous XBP-1 splicing in myeloma cells (MM.1s, DTT stress, RT-PCR)
# Assay type: cell-based
# Conditions: average cellular EC50, XBP-1 splicing in myeloma cells
# Description: Human myeloma MM.1s cells are incubated with a compound for 1.25 hours before stressing the cells with 2 mM dithiothreitol (DTT). After an additional 45 minutes (2 hours total) with compound and DTT, the cells are harvested with TRIZOL® (a mono-phasic solution of phenol and guanidine isothiocyanate), and total RNA is prepared as directed by the manufacturer (Invitrogen). Human XBP-1 is amplified by RT-PCR with the following primers, which flank the 26 base unconventional intron excised by IRE-1α:
# RT-PCR of unstressed (U) cells then generates the upper band. When cells are stressed (S) with the endoplasmic reticulum (ER) stressing agent DTT, IRE-1α is activated due to accumulating unfolded protein and the resulting RT-PCR product is 26 base pairs shorter.
# Compounds which pass specificity assays are assayed for cellular EC50 using endogenous XBP-1 splicing in myeloma cells. XBP-1 is regulated through the excision of a 26 nucleotide intron from the XBP-1 mRNA by the highly specific endoribonuclease activity of IRE-1α. […] This splicing event is used to measure IRE-1α activity on XBP-1 mRNA in cells and tissues.
# Briefly, compounds are incubated in the presence or absence of an ER stress agent (e.g., DTT), and the ratio of XBP-1u (unspliced) to XBP-1s (spliced) is quantified by RT-PCR. The ED50 is determined as the 50% XBP-1s to total XPB-1 levels.
# IRE-1α, sequence (O75460 19-977): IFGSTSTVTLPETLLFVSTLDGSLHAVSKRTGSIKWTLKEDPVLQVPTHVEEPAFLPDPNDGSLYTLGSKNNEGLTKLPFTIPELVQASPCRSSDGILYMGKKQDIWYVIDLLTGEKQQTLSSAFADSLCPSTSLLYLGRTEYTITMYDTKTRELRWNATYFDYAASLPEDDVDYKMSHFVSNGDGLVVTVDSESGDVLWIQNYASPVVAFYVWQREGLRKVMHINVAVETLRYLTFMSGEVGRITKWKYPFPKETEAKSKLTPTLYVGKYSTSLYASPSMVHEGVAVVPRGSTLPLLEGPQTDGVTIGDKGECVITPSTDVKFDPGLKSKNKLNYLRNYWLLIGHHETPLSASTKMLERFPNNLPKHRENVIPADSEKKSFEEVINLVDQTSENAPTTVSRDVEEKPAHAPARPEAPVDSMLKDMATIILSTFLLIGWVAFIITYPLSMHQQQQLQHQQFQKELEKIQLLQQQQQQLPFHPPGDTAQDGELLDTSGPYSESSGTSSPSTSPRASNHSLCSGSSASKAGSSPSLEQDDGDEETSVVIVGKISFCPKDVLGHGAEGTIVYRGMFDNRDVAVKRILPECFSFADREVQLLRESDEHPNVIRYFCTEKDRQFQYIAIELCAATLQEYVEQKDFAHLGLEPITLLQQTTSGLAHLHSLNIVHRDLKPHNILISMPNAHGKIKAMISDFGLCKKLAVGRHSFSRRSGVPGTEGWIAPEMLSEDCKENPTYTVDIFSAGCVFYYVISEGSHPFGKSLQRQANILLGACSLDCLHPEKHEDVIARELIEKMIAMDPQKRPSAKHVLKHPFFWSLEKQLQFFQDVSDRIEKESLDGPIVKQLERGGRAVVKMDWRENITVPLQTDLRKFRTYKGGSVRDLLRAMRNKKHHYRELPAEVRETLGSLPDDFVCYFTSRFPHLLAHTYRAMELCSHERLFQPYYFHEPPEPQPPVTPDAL
row,EC50 [µM],Structure (SMILES)
1,< 10,Cc1nc(-c2cc3ccc(O)c(C=O)c3oc2=O)sc1C(=O)NCCN1CCOCC1 [Example 109]
2,< 10,Cc1nc(-c2c(C)c3ccc(O)c(C=O)c3oc2=O)sc1C(=O)N1CCN(C)CC1 [Example 110]
3,< 10,COc1cc2c(C)c(-c3ccc(C(=O)N4CCN(C)CC4)cc3)c(=O)oc2c(C=O)c1O [Example 111]
4,< 10,Cc1c(/C=C/C(=O)N2CCN(C)CC2)c(=O)oc2c(C=O)c(O)ccc12 [Example 112]
5,< 10,COc1cc2c(C)c(-c3ccc(N4CCN(C)CC4)nc3)c(=O)oc2c(C=O)c1O [Example 113]
6,< 10,COc1cc2c(C)c(-c3ccc(N4CCOCC4)nc3)c(=O)oc2c(C=O)c1O [Example 114]
7,< 10,COc1cc2c(C)c(-c3ccc(N(C)C)nc3)c(=O)oc2c(C=O)c1O [Example 115]
8,< 10,[2H]C(=O)c1c(O)ccc2c(C)c(-c3ccc(C(=O)NCCN4CCOCC4)cc3)c(=O)oc12 [Example 116]
9,< 10,CCc1cc2c(C)c(-c3ccc(C(=O)NCCN4CCOCC4)cc3)c(=O)oc2c(C=O)c1O [Example 117]
10,< 10,CCc1cc2c(C)c(-c3ccc(C(=O)NCCOC)cc3)c(=O)oc2c(C=O)c1O [Example 118]
11,> 10,CCc1cc2c(C)c(-c3ccc(C(=O)N4CCOCC4)cc3)c(=O)oc2c(C=O)c1O [Example 119]
12,< 10,COc1cc(O)c(C=O)c2oc(=O)cc(C)c12 [Example 120]
13,< 10,COCCOc1cc(O)c(C=O)c2oc(=O)cc(C)c12 [Example 121]
14,< 10,COCc1cc(=O)oc2c(C=O)c(O)cc(OC)c12 [Example 122]
15,< 10,COCCc1c(C)c2c(O)cc(O)c(C=O)c2oc1=O [Example 123]
16,< 10,COCCc1c(C)c2c(OC)cc(O)c(C=O)c2oc1=O [Example 124]
17,< 10,COCCc1c(C)c2cc(OC)c(O)c(C=O)c2oc1=O [Example 125]
18,< 10,C=CCc1c(C)c2c(OC)cc(O)c(C=O)c2oc1=O [Example 126]
19,< 10,COCCOCCc1c(C)c2cc(OC)c(O)c(C=O)c2oc1=O [Example 127]
20,< 10,Cc1c(CC(=O)N2CCOCC2)c(=O)oc2c(C=O)c(O)ccc12 [Example 129]
21,< 10,CCOC(=O)Cc1c(C)c2cc(OC)c(O)c(C=O)c2oc1=O [Example 131]
22,< 10,COc1cc2c(CN3CCOCC3)c(C)c(=O)oc2c(C=O)c1O [Example 132]
23,< 10,COc1cc2c(CN(C)C)c(C)c(=O)oc2c(C=O)c1O [Example 133]
24,< 10,COc1cc(O)c(C=O)c2oc(=O)c(C)c(CN3CCOCC3)c12 [Example 134]
25,< 10,COc1cc(O)c(C=O)c2oc(=O)c(C)c(CN(C)C)c12 [Example 135]
26,< 10,COCc1cc(=O)oc2c(C=O)c(O)c(OC)cc12 [Example 136]

row,EC50 [µM],Structure (SMILES)
1,< 10,COCc1c(C)c(=O)oc2c(C=O)c(O)ccc12 [Example 137]
2,> 10,COCCNC(=O)CCc1c(COC)c2cc(OC)c(O)c(C=O)c2oc1=O [Example 138]
3,< 10,COCc1c(CCC(=O)N2CCOCC2)c(=O)oc2c(C=O)c(O)c(OC)cc12 [Example 139]
4,> 10,COCc1c(CCC(=O)NCCN2CCOCC2)c(=O)oc2c(C=O)c(O)c(OC)cc12 [Example 140]
5,< 10,COc1cc2c(C)c(-c3ccc(C(=O)N4CCN(C)CC4)s3)c(=O)oc2c(C=O)c1O [Example 141]
6,< 10,COc1cc2c(C)c(-c3ccc(C(=O)N4CCOCC4)s3)c(=O)oc2c(C=O)c1O [Example 142]
7,< 10,COc1cc2c(C)c(-c3ccc(C(=O)NCCN4CCOCC4)s3)c(=O)oc2c(C=O)c1O [Example 143]
8,> 10,CCOC(=O)CCc1c(C)c2cc(N(C)C(C)=O)c(O)c(C=O)c2oc1=O [Example 144]
9,< 10,COCCOCCc1c(C)c2c(OC)cc(O)c(C=O)c2oc1=O [Example 145]
10,< 10,COc1cc2c(C(C)C)cc(=O)oc2c(C=O)c1O [Example 146]
11,> 10,COc1cc2c(C)c(CCC(=O)NCCO)c(=O)oc2c(C=O)c1O [Example 147]
12,> 10,COc1cc2c(C)c(CC(=O)NCCO)c(=O)oc2c(C=O)c1O [Example 148]
13,< 10,COCOCCNC(=O)Cc1c(C)c2cc(OC)c(O)c(C=O)c2oc1=O [Example 149]
14,> 10,COCCNC(=O)c1ccc(-c2c(C)c3cc(Cl)c(O)c(C=O)c3oc2=O)cc1 [Example 150]
15,> 10,Cc1c(-c2ccc(C(=O)NCCN3CCOCC3)cc2)c(=O)oc2c(C=O)c(O)c(Cl)cc12 [Example 151]
16,< 10,COCCNC(=O)CCc1c(C)c2c(OCCOC)cc(O)c(C=O)c2oc1=O [Example 152]
17,< 10,COCCOc1cc(O)c(C=O)c2oc(=O)c(CCC(=O)N3CCOCC3)c(C)c12 [Example 153]
18,< 10,COCCOc1cc(O)c(C=O)c2oc(=O)c(CCC(=O)N3CCN(C)CC3)c(C)c12 [Example 154]
19,< 10,CCNC(=O)CCc1c(C)c2c(OCCOC)cc(O)c(C=O)c2oc1=O [Example 155]
20,> 10,COCCOc1cc(O)c(C=O)c2oc(=O)c(CCC(=O)NCCN3CCOCC3)c(C)c12 [Example 156]
21,> 10,COCCOc1cc(O)c(C=O)c2oc(=O)c(CCC(=O)NCCN(C)C)c(C)c12 [Example 157]
22,< 10,CCOC(=O)Cc1c(C)c2c(OCCOC)cc(O)c(C=O)c2oc1=O [Example 158]
23,< 10,COCCNC(=O)Cc1c(C)c2c(OCCOC)cc(O)c(C=O)c2oc1=O [Example 159]
24,< 10,COCCOc1cc(O)c(C=O)c2oc(=O)c(CC(=O)N3CCOCC3)c(C)c12 [Example 160]
25,< 10,CCNC(=O)Cc1c(C)c2c(OCCOC)cc(O)c(C=O)c2oc1=O [Example 162]
26,< 10,COCCOc1cc(O)c(C=O)c2oc(=O)c(CC(=O)NCCN3CCOCC3)c(C)c12 [Example 163]

row,EC50 [µM],Structure (SMILES)
1,> 10,COCCOc1cc(O)c(C=O)c2oc(=O)c(CC(=O)NCCN(C)C)c(C)c12 [Example 164]
2,< 10,COCCOc1cc(O)c(C=O)c2oc(=O)c(C)c(C)c12 [Example 165]
3,< 10,COCCNC(=O)Cc1c(C)c2cc(OC)c(O)c(C=O)c2oc1=O [Example 166]
4,< 10,CCNC(=O)Cc1c(C)c2cc(OC)c(O)c(C=O)c2oc1=O [Example 169]
5,< 10,COc1cc2c(C)c(CC(=O)NCCN(C)C)c(=O)oc2c(C=O)c1O [Example 170]
6,< 10,COCCNC(=O)CCc1c(C)c2cc(OC)c(O)c(C=O)c2oc1=O [Example 171]
7,< 10,COc1cc2c(C)c(CCC(=O)N3CCOCC3)c(=O)oc2c(C=O)c1O [Example 172]
8,< 10,COc1cc2c(C)c(CCC(=O)N3CCN(C)CC3)c(=O)oc2c(C=O)c1O [Example 173]
9,< 10,CCNC(=O)CCc1c(C)c2cc(OC)c(O)c(C=O)c2oc1=O [Example 174]
10,> 10,COc1cc2c(C)c(CCC(=O)NCCN(C)C)c(=O)oc2c(C=O)c1O [Example 175]
11,< 10,COCCNC(=O)Cc1c(C)c2c(OC)cc(O)c(C=O)c2oc1=O [Example 176]
12,< 10,COc1cc(O)c(C=O)c2oc(=O)c(CC(=O)N3CCOCC3)c(C)c12 [Example 177]
13,< 10,COc1cc(O)c(C=O)c2oc(=O)c(CC(=O)NCCN3CCOCC3)c(C)c12 [Example 179]
14,< 10,COc1cc(O)c(C=O)c2oc(=O)c(CC(=O)NCCN(C)C)c(C)c12 [Example 180]
15,< 10,COCCOc1cc2c(C)c(CCC(=O)N3CCOCC3)c(=O)oc2c(C=O)c1O [Example 181]
16,< 10,COCCOc1cc2c(C)c(CCC(=O)N3CCN(C)CC3)c(=O)oc2c(C=O)c1O [Example 182]
17,< 10,CCNC(=O)CCc1c(C)c2cc(OCCOC)c(O)c(C=O)c2oc1=O [Example 183]
18,< 10,COCCNC(=O)CCc1c(C)c2cc(OCCOC)c(O)c(C=O)c2oc1=O [Example 184]
19,> 10,COCCOc1cc2c(C)c(CCC(=O)NCCN(C)C)c(=O)oc2c(C=O)c1O [Example 185]
20,> 10,COCCOc1cc2c(C)c(CCC(=O)NCCN3CCOCC3)c(=O)oc2c(C=O)c1O [Example 186]
21,< 10,COCCOc1cc2c(C)c(CC(=O)NCCN3CCOCC3)c(=O)oc2c(C=O)c1O [Example 187]
22,< 10,COCCOc1cc2c(C)c(CC(=O)N3CCOCC3)c(=O)oc2c(C=O)c1O [Example 188]
23,< 10,COCCNC(=O)Cc1c(C)c2cc(OCCOC)c(O)c(C=O)c2oc1=O [Example 190]
24,< 10,CCNC(=O)Cc1c(C)c2cc(OCCOC)c(O)c(C=O)c2oc1=O [Example 191]

row,Structure (SMILES),EC50 [µM]
1,Cc1c(CC(=O)N2CCN(C)CC2)c(=O)oc2c(C=O)c(O)ccc12 [Example 130],< 10
2,COCCOc1cc(O)c(C=O)c2oc(=O)c(CC(=O)N3CCN(C)CC3)c(C)c12 [Example 161],< 10
3,COc1cc2c(C)c(CC(=O)N3CCN(C)CC3)c(=O)oc2c(C=O)c1O [Example 168],< 10
4,COc1cc(O)c(C=O)c2oc(=O)c(CC(=O)N3CCN(C)CC3)c(C)c12 [Example 178],< 10
5,COCCOc1cc2c(C)c(CC(=O)N3CCN(C)CC3)c(=O)oc2c(C=O)c1O [Example 189],< 10
